# Values quoted from earlier work, collected in PubChem BioAssay AID1259409 (Chemical Carcinogenesis Research Information System (CCRIS), 2018).
# System: rodent chemically induced tumor inhibition, incidence and multiplicity
# Test: CCRIS tumor inhibitor studies
# Details: Carcinogen: DIETHYLNITROSAMINE, 55-18-5, N-METHYLNITROSOUREA, 684-93-5, 1,2-DIMETHYLHYDRAZINE, 540-73-8, N-BUTYL-N-(4-HYDROXYB, Carcinogen: DIETHYLNITROSAMINE, 55-18-5, N-METHYLNITROSOUREA, 684-93-5, 1,2-DIMETHYLHYDRAZINE, 540-73-8, N-BUTYL-N-(4-HYDROXYB, Dose [Inhibitor]: 0, Route [Inhibitor]: ORAL, Species: RAT, Strain/Sex: F344/MALE, Dose [Carcinogen]: 100 MG/KG DEN ONCE, 20 MG/KG MNU 4 TIMES, 40 MG/KG DMH 4 TIMES, 0.05% BBN IN DRINKING WATER FOR 2 WK, 0.1% DHPN IN D, Dose [Carcinogen]: 100 MG/KG DEN ONCE, 20 MG/KG MNU 4 TIMES, 40 MG/KG DMH 4 TIMES, 0.05% BBN IN DRINKING WATER FOR 2 WK, 0.1% DHPN IN D, Promoter: NONE USED
smiles,measurement,setting,value
O=c1c(O)c(-c2ccc(O)c(O)c2)oc2cc(O)cc(O)c12,"tumour outcome (control, treated, inhibition, significance)","1% IN DIET FOR 4 WK BEGINNING 1 DAY PRIOR TO CARCINOGEN TREATMENT (STUDY DURATION: 36 WK), Target Tissue: Type of Lesion: LUNG: ADENOMA","6/14 (43%), 2/13 (15%), 65%, not significant"
same,"tumour outcome (control, treated, inhibition, significance)","1% IN DIET FOR 4 WK BEGINNING 1 DAY PRIOR TO CARCINOGEN TREATMENT (STUDY DURATION: 36 WK), Target Tissue: Type of Lesion: SMALL INTESTINE: ADENOMA","6/14 (43%), 1/13 (8%), 81%, p<0.05"
same,"tumour outcome (control, treated, inhibition, significance)","1% IN DIET FOR 4 WK BEGINNING 1 DAY PRIOR TO CARCINOGEN TREATMENT (STUDY DURATION: 36 WK), Target Tissue: Type of Lesion: SMALL INTESTINE: CARCINOMA","5/14 (36%), 2/13 (15%), 58%, not significant"
same,"tumour outcome (control, treated, inhibition, significance)","1% IN DIET FOR 32 WK BEGINNING POST CARCINOGEN TREATMENT (STUDY DURATION: 36 WK), Target Tissue: Type of Lesion: KIDNEY: ADENOMA","4/14 (29%), 3/12 (25%), 14%, not significant"
same,"tumour outcome (control, treated, inhibition, significance)","1% IN DIET FOR 32 WK BEGINNING POST CARCINOGEN TREATMENT (STUDY DURATION: 36 WK), Target Tissue: Type of Lesion: KIDNEY: NEPHROBLASTOMA","7/14 (50%), 4/12 (33%), 34%, not significant"
same,"tumour outcome (control, treated, inhibition, significance)","1% IN DIET FOR 32 WK BEGINNING POST CARCINOGEN TREATMENT (STUDY DURATION: 36 WK), Target Tissue: Type of Lesion: LARGE INTESTINE: CARCINOMA","3/14 (21%), 4/12 (33%), -57%, not significant"
